Results: ChEMBL document CHEMBL3098094, “Synthesis and biological evaluation of novel N-substituted 1H-dibenzo[a,c]carbazole derivatives of dehydroabietic acid as potential antimicrobial agents” (2014)
≈ marks a conversion by molar mass, not a printed value.

Legend:
Assay type in all cases: functional
[1] = system: Staphylococcus aureus; assay: Antimicrobial activity against Staphylococcus aureus CGMCC1.1361 after 24 hrs by twofold serial microdilution method; conditions: CGMCC1.1361, 24 h
[2] = system: Candida tropicalis; assay: Antimicrobial activity against Candida tropicalis CGMCC2.3967 after 48 hrs by twofold serial microdilution method; conditions: CGMCC2.3967, 48 h
[3] = system: Pseudomonas fluorescens; assay: Antimicrobial activity against Pseudomonas fluorescens CGMCC1.1828 after 24 hrs by twofold serial microdilution method; conditions: CGMCC1.1828, 24 h
[4] = system: Escherichia coli; assay: Antimicrobial activity against Escherichia coli CGMCC1.1571 after 24 hrs by twofold serial microdilution method; conditions: CGMCC1.1571, 24 h
[5] = system: Candida albicans; assay: Antimicrobial activity against Candida albicans CGMCC2.2086 after 48 hrs by twofold serial microdilution method; conditions: CGMCC2.2086, 48 h
[6] = system: Bacillus subtilis; assay: Antimicrobial activity against Bacillus subtilis CGMCC1.1162 after 24 hrs by twofold serial microdilution method; conditions: CGMCC1.1162, 24 h
[7] = system: Aspergillus niger; assay: Antimicrobial activity against Aspergillus niger CGMCC3.316 after 48 hrs by twofold serial microdilution method; conditions: CGMCC3.316, 48 h

| Structure (SMILES) | MIC [1] [µg/mL] | MIC [2] [µg/mL] | MIC [3] [µg/mL] | MIC [4] [µg/mL] | MIC [5] [µg/mL] | MIC [6] [µg/mL] | MIC [7] [µg/mL] |
| --- | --- | --- | --- | --- | --- | --- | --- |
| COC(=O)[C@]1(C)CCC[C@]2(C)c3ccc(C(C)C)cc3-c3[nH]c4ccccc4c3[C@@H]12 | 62.5 (≈ 156 µM) | > 100 | 62.5 (≈ 156 µM) | > 100 | > 100 | 31.2 (≈ 77.7 µM) | > 100 |
| COC(=O)[C@]1(C)CCC[C@]2(C)c3ccc(C(C)C)cc3-c3c(c4ccccc4n3CCN3CCCCC3)[C@@H]12 | 62.5 (≈ 122 µM) | 62.5 (≈ 122 µM) | 62.5 (≈ 122 µM) | > 100 | > 100 | 15.6 (≈ 30.4 µM) | > 100 |
| CC(=O)N1CCN(c2ccc(OCC3COC(Cn4ccnc4)(c4ccc(Cl)cc4Cl)O3)cc2)CC1 (racemic) [KETOCONAZOLE] |  | 3.9 (≈ 7.34 µM) |  |  | 3.9 (≈ 7.34 µM) |  | 7.8 (≈ 14.7 µM) |
| COC(=O)[C@]1(C)CCC[C@]2(C)c3ccc(C(C)C)cc3-c3c(c4ccccc4n3CCN(C)C)[C@@H]12 | > 100 | > 100 | 62.5 (≈ 132 µM) | > 100 | > 100 | 62.5 (≈ 132 µM) | > 100 |
| COC(=O)[C@]1(C)CCC[C@]2(C)c3ccc(C(C)C)cc3-c3c(c4ccccc4n3CCNc3ccc(Br)cc3)[C@@H]12 | 62.5 (≈ 104 µM) | > 100 | > 100 | > 100 | > 100 | 31.2 (≈ 52 µM) | > 100 |

Continued by falling MIC [1], values first:

| MIC [1] [µg/mL] | MIC [2] [µg/mL] | MIC [3] [µg/mL] | MIC [4] [µg/mL] | MIC [5] [µg/mL] | MIC [6] [µg/mL] | MIC [7] [µg/mL] | Structure (SMILES) |
| --- | --- | --- | --- | --- | --- | --- | --- |
| 62.5 (≈ 125 µM) | > 100 | 62.5 (≈ 125 µM) | > 100 | 62.5 (≈ 125 µM) | 31.2 (≈ 62.3 µM) | > 100 | CCN(CC)CCn1c2c(c3ccccc31)[C@H]1[C@](C)(C(=O)OC)CCC[C@]1(C)c1ccc(C(C)C)cc1-2 |
| 31.2 (≈ 62.8 µM) | > 100 | 31.2 (≈ 62.8 µM) | 15.6 (≈ 31.4 µM) | > 100 | 7.8 (≈ 15.7 µM) | > 100 | COC(=O)[C@]1(C)CCC[C@]2(C)c3ccc(C(C)C)cc3-c3c(c4ccccc4n3CCn3ccnn3)[C@@H]12 |
| 31.2 (≈ 62.7 µM) | > 100 | 62.5 (≈ 126 µM) | 62.5 (≈ 126 µM) | > 100 | 31.2 (≈ 62.7 µM) | > 100 | COC(=O)[C@]1(C)CCC[C@]2(C)c3ccc(C(C)C)cc3-c3c(c4ccccc4n3CCn3ncnn3)[C@@H]12 |
| 31.2 (≈ 62.7 µM) | 62.5 (≈ 126 µM) | 15.6 (≈ 31.3 µM) | 31.2 (≈ 62.7 µM) | 31.2 (≈ 62.7 µM) | 7.8 (≈ 15.7 µM) | > 100 | COC(=O)[C@]1(C)CCC[C@]2(C)c3ccc(C(C)C)cc3-c3c(c4ccccc4n3CCn3cnnn3)[C@@H]12 |
| 31.2 (≈ 56.2 µM) | > 100 | 62.5 (≈ 113 µM) | > 100 | 62.5 (≈ 113 µM) | 31.2 (≈ 56.2 µM) | > 100 | COC(=O)[C@]1(C)CCC[C@]2(C)c3ccc(C(C)C)cc3-c3c(c4ccccc4n3CCNc3ccc(Cl)cc3)[C@@H]12 |
| 7.8 (≈ 13.8 µM) | 62.5 (≈ 110 µM) | 15.6 (≈ 27.6 µM) | 31.2 (≈ 55.2 µM) | 31.2 (≈ 55.2 µM) | 15.6 (≈ 27.6 µM) | > 100 | COC(=O)[C@]1(C)CCC[C@]2(C)c3ccc(C(C)C)cc3-c3c(c4ccccc4n3CCNc3ccc([N+](=O)[O-])cc3)[C@@H]12 |
| 7.8 (≈ 15.2 µM) | 31.2 (≈ 60.6 µM) | 31.2 (≈ 60.6 µM) | 31.2 (≈ 60.6 µM) | 62.5 (≈ 121 µM) | 15.6 (≈ 30.3 µM) | 62.5 (≈ 121 µM) | COC(=O)[C@]1(C)CCC[C@]2(C)c3ccc(C(C)C)cc3-c3c(c4ccccc4n3CCN3CCOCC3)[C@@H]12 |
| 1.9 (≈ 3.43 µM) | 31.2 (≈ 56.2 µM) | 7.8 (≈ 14.1 µM) | 7.8 (≈ 14.1 µM) | 31.2 (≈ 56.2 µM) | 0.9 (≈ 1.62 µM) | > 100 | COC(=O)[C@]1(C)CCC[C@]2(C)c3ccc(C(C)C)cc3-c3c(c4ccccc4n3CCn3c([N+](=O)[O-])cnc3C)[C@@H]12 |
